Data on 21 compounds can be found in BindingDB's records for doi:10.1021/jm070849r (Pfizer, 2008).

pIC50: −log10 of the molar value.

In the test the target is T1, 3-hydroxy-3-methylglutaryl-coenzyme A reductase (Rattus norvegicus, UniProt P51639).
T1 sequence (P51639 whole entry): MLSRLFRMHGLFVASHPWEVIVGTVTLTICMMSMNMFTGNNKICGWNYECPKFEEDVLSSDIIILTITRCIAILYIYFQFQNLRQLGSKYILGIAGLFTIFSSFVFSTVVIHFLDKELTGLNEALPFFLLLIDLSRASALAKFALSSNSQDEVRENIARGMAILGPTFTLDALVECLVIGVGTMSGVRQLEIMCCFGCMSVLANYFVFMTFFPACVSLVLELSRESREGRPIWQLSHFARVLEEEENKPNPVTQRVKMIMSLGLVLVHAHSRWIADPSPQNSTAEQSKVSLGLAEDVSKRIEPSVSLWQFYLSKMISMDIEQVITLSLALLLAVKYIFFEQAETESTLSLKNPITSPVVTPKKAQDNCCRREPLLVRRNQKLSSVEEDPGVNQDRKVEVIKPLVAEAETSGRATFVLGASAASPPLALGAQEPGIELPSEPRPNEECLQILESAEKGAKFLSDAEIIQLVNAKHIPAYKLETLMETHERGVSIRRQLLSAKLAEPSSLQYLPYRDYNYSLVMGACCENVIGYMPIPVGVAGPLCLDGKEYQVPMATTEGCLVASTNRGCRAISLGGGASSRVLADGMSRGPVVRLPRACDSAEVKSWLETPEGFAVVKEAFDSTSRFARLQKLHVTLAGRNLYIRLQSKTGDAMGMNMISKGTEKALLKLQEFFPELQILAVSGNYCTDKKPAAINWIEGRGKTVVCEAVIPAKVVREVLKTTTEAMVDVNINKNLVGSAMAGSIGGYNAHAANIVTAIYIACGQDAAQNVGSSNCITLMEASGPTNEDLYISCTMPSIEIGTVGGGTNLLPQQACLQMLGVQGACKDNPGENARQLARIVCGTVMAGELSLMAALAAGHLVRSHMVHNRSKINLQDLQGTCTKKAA
The experiment in a line: HMG-CoA Reductase Enzyme Assay and Inhibition of Cellular Cholesterol Synthesis Assay. Particulars: pH 7.2; 37 °C. As to the method: Enzyme Assay for HMG-CoA reductase was based on the conversion of isotopically labeled HMG-CoA to mevalonic acid using rat liver microsomes as enzyme source. The product, [14C]-mevalonic acid was lactonized and separated from excess substrate via an anion ion exchange resin column, and radioactivity was counted on a scintillation counter. The IC50 values were calculated with GraphPad software (Prism). The cellular assay EC50/IC50 values were obtained from inhibition of cholesterol synthesis in rat hepatocyte.
`CC(C)c1c(C(=O)NCc2ccc(C(=O)N(C)C)cc2)nn(-c2ccc(F)cc2)c1CC[C@@H](O)C[C@@H](O)CC(=O)O` [sodium (3R,5R)-7-[3-({[4-(dimethylcarbamoyl)phenyl]methyl}carbamoyl)-1-(4-fluorophenyl)-4-(propan-2-yl)-1H-pyrazol-5-yl]-3,5-dihydroxyheptanoate] gave a pIC50 of 7.64. Compound `CC(C)c1c(C(=O)N(C)Cc2ccc(F)cc2F)nn(-c2ccc(F)cc2)c1CC[C@@H](O)C[C@@H](O)CC(=O)O` [sodium (3R,5R)-7-(3-{[(2,4-difluorophenyl)methyl](methyl)carbamoyl}-1-(4-fluorophenyl)-4-(propan-2-yl)-1H-pyrazol-5-yl)-3,5-dihydroxyheptanoate] showed a pIC50 of 8.68.

`COc1ccc(CN(C)C(=O)c2nn(-c3ccc(F)cc3)c(CC[C@@H](O)C[C@@H](O)CC(=O)O)c2C(C)C)cc1` [sodium (3R,5R)-7-[1-(4-fluorophenyl)-3-{[(4-methoxyphenyl)methyl](methyl)carbamoyl}-4-(propan-2-yl)-1H-pyrazol-5-yl]-3,5-dihydroxyheptanoate]: the pIC50 was 9.52. Take `Cc1ccc(CN(C)C(=O)c2nn(-c3ccc(F)cc3)c(CC[C@@H](O)C[C@@H](O)CC(=O)O)c2C(C)C)cc1` [sodium (3R,5R)-7-[1-(4-fluorophenyl)-3-{methyl[(4-methylphenyl)methyl]carbamoyl}-4-(propan-2-yl)-1H-pyrazol-5-yl]-3,5-dihydroxyheptanoate]: the pIC50 is 8.74. The same measure for `CC(C)c1c(C(=O)NCc2cccc(C#N)c2)nn(-c2ccc(F)cc2)c1CC[C@@H](O)C[C@@H](O)CC(=O)O` [sodium (3R,5R)-7-(3-{[(3-cyanophenyl)methyl]carbamoyl}-1-(4-fluorophenyl)-4-(propan-2-yl)-1H-pyrazol-5-yl)-3,5-dihydroxyheptanoate]: 8.85; for `COCc1c(C(C)C)nc(C(C)C)c(/C=C/[C@@H](O)C[C@@H](O)CC(=O)O)c1-c1ccc(F)cc1` [(3R,5S,6E)-7-[4-(4-fluorophenyl)-5-(methoxymethyl)-2,6-bis(propan-2-yl)pyridin-3-yl]-3,5-dihydroxyhept-6-enoic acid]: 8.77. In the case of `CC(C)c1c(C(=O)N(C)Cc2cccc(F)c2)nn(-c2ccc(F)cc2)c1CC[C@@H](O)C[C@@H](O)CC(=O)O` [sodium (3R,5R)-7-[1-(4-fluorophenyl)-3-{[(3-fluorophenyl)methyl](methyl)carbamoyl}-4-(propan-2-yl)-1H-pyrazol-5-yl]-3,5-dihydroxyheptanoate], the pIC50 was 9.70. `Cc1ccc(CNC(=O)c2nn(-c3ccc(F)cc3)c(CC[C@@H](O)C[C@@H](O)CC(=O)O)c2C(C)C)cc1` [pyrazole-based inhibitor, 35] showed a pIC50 of 9.05.

Turning to `CC(C)c1c(C(=O)NCc2ccccc2)nn(-c2ccc(F)cc2)c1CC[C@@H](O)C[C@@H](O)CC(=O)O` [(3R,5R)-7-[3-(benzylcarbamoyl)-1-(4-fluorophenyl)-4-(propan-2-yl)-1H-pyrazol-5-yl]-3,5-dihydroxyheptanoic acid], the pIC50 was 9.52. As to `CC(C)c1c(C(=O)N(C)Cc2ccccc2F)nn(-c2ccc(F)cc2)c1CC[C@@H](O)C[C@@H](O)CC(=O)O` [sodium (3R,5R)-7-[1-(4-fluorophenyl)-3-{[(2-fluorophenyl)methyl](methyl)carbamoyl}-4-(propan-2-yl)-1H-pyrazol-5-yl]-3,5-dihydroxyheptanoate], the pIC50 was 9.30. Compound `CC(C)c1c(C(=O)N2CCC[C@H](c3ccccc3)C2)nn(-c2ccc(F)cc2)c1CC[C@@H](O)C[C@@H](O)CC(=O)O` [sodium (3R,5R)-7-[1-(4-fluorophenyl)-3-{[(3R)-3-phenylpiperidin-1-yl]carbonyl}-4-(propan-2-yl)-1H-pyrazol-5-yl]-3,5-dihydroxyheptanoate] had a pIC50 of 9.52.

`COCc1cccc(CNC(=O)c2nn(-c3ccc(F)cc3)c(CC[C@@H](O)C[C@@H](O)CC(=O)O)c2C(C)C)c1` [sodium (3R,5R)-7-[1-(4-fluorophenyl)-3-({[3-(methoxymethyl)phenyl]methyl}carbamoyl)-4-(propan-2-yl)-1H-pyrazol-5-yl]-3,5-dihydroxyheptanoate] had a pIC50 of 9.15. Consider `CC(C)c1c(C(=O)N2CCCCC2c2ccccc2)nn(-c2ccc(F)cc2)c1CC[C@@H](O)C[C@@H](O)CC(=O)O` (stereo partly drawn) [sodium (3R,5R)-7-[1-(4-fluorophenyl)-3-[(2-phenylpiperidin-1-yl)carbonyl]-4-(propan-2-yl)-1H-pyrazol-5-yl]-3,5-dihydroxyheptanoate], for which the pIC50 is 8.96. To `CC[C@H](C)C(=O)O[C@H]1C[C@H](O)C=C2C=C[C@H](C)[C@H](CC[C@@H](O)C[C@@H](O)CC(=O)O)[C@H]21` [(3R,5R)-7-[(1S,2S,6S,8S,8aR)-6-hydroxy-2-methyl-8-{[(2S)-2-methylbutanoyl]oxy}-1,2,6,7,8,8a-hexahydronaphthalen-1-yl]-3,5-dihydroxyheptanoic acid] belongs 7.77; to `CC(C)c1c(C(=O)N2CCCC(c3ccccc3)C2)nn(-c2ccc(F)cc2)c1CC[C@@H](O)C[C@@H](O)CC(=O)O` (stereo partly drawn) [sodium (3R,5R)-7-[1-(4-fluorophenyl)-3-[(3-phenylpiperidin-1-yl)carbonyl]-4-(propan-2-yl)-1H-pyrazol-5-yl]-3,5-dihydroxyheptanoate], 9.40; to `CC(C)c1nc(N(C)S(C)(=O)=O)nc(-c2ccc(F)cc2)c1/C=C/[C@@H](O)C[C@@H](O)CC(=O)O`, 9.52. Turning to `CC(C)c1c(C(=O)N(C)Cc2cccc(F)c2F)nn(-c2ccc(F)cc2)c1CC[C@@H](O)C[C@@H](O)CC(=O)O` [sodium (3R,5R)-7-(3-{[(2,3-difluorophenyl)methyl](methyl)carbamoyl}-1-(4-fluorophenyl)-4-(propan-2-yl)-1H-pyrazol-5-yl)-3,5-dihydroxyheptanoate], the pIC50 is 9.22. With `CC(C)c1c(C(=O)N(C)Cc2ccccc2)nn(-c2ccc(F)cc2)c1CC[C@@H](O)C[C@@H](O)CC(=O)O` [sodium (3R,5R)-7-{3-[benzyl(methyl)carbamoyl]-1-(4-fluorophenyl)-4-(propan-2-yl)-1H-pyrazol-5-yl}-3,5-dihydroxyheptanoate], the pIC50 is 9.70. In turn, `COc1ccc(CNC(=O)c2nn(-c3ccc(F)cc3)c(CC[C@@H](O)C[C@@H](O)CC(=O)O)c2C(C)C)cc1` [sodium (3R,5R)-7-[1-(4-fluorophenyl)-3-{[(4-methoxyphenyl)methyl]carbamoyl}-4-(propan-2-yl)-1H-pyrazol-5-yl]-3,5-dihydroxyheptanoate] showed a pIC50 of 9.40. The compound `CC(C)c1c(C(=O)NCc2ccc(F)cc2)nn(-c2ccc(F)cc2)c1CC[C@@H](O)C[C@@H](O)CC(=O)O` [sodium (3R,5R)-7-[1-(4-fluorophenyl)-3-{[(4-fluorophenyl)methyl]carbamoyl}-4-(propan-2-yl)-1H-pyrazol-5-yl]-3,5-dihydroxyheptanoate] showed a pIC50 of 9.15. Compound `CCN(Cc1ccccc1)C(=O)c1nn(-c2ccc(F)cc2)c(CC[C@@H](O)C[C@@H](O)CC(=O)O)c1C(C)C` [sodium (3R,5R)-7-{3-[benzyl(ethyl)carbamoyl]-1-(4-fluorophenyl)-4-(propan-2-yl)-1H-pyrazol-5-yl}-3,5-dihydroxyheptanoate] showed a pIC50 of 8.26.
